From PubChem BioAssay AID2060625 (Molecular Pharmacology Branch, DTP, NCI, 2025)

Tested on: 186277-243-T-J2-PDC spheroids with HUVEC/MSC, viability
Assay: Anticancer human tumor 186277-243-T-J2-PDC patient-derived colon adenocarcinoma cell line growth inhibition [CLK]
Details: for IC50: curve of first compound; for viability, T/C: stronger effect = lower value
Outline: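 Multi-cell-type spheroids combined patient-derived tumor cells with HUVEC endothelial cells and human mesenchymal stem cells. Paired agents were dosed in half-log steps down from about clinical Cmax, or from 10 microM where Cmax was unknown.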
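Note: compound exposure lasted seven days before readout.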
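Throughout, for viability, T/C: 100% = DMSO vehicle control wells.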

## C=CC(=O)Nc1cc(Nc2nccc(-c3cn(C)c4ccccc34)n2)c(OC)cc1N(C)CCN(C)C + CNC(=O)c1ccc(Nc2nc(OC3CCCC3)c3c(-c4ccc5nc(C)oc5c4)c[nH]c3n2)c(OC)c1
Second compound 0.0316 µM
  IC50: > 300 nM
Second compound 0.1 µM
  IC50: 203 nM
Second compound 0.316 µM
  IC50: < 0.949 nM
Second compound 1 µM
  IC50: < 0.949 nM
Second compound 3.16 µM
  IC50: < 0.949 nM
Second compound 10 µM
  IC50: < 0.949 nM
Second compound 0.0316 µM, first compound 0.000949 µM
  viability, T/C: 118%
Second compound 0.0316 µM, first compound 0.003 µM
  viability, T/C: 109%
Second compound 0.0316 µM, first compound 0.00949 µM
  viability, T/C: 101%
Second compound 0.0316 µM, first compound 0.03 µM
  viability, T/C: 93.7%
Second compound 0.0316 µM, first compound 0.0949 µM
  viability, T/C: 97.9%
Second compound 0.0316 µM, first compound 0.3 µM
  viability, T/C: 101%
Second compound 0.1 µM, first compound 0.000949 µM
  viability, T/C: 84.3%
Second compound 0.1 µM, first compound 0.003 µM
  viability, T/C: 76.1%
Second compound 0.1 µM, first compound 0.00949 µM
  viability, T/C: 73.1%
Second compound 0.1 µM, first compound 0.03 µM
  viability, T/C: 68%
Second compound 0.1 µM, first compound 0.0949 µM
  viability, T/C: 57.4%
Second compound 0.1 µM, first compound 0.3 µM
  viability, T/C: 46%
Second compound 0.316 µM, first compound 0.000949 µM
  viability, T/C: 48.7%
Second compound 0.316 µM, first compound 0.003 µM
  viability, T/C: 46.7%
Second compound 0.316 µM, first compound 0.00949 µM
  viability, T/C: 45%
Second compound 0.316 µM, first compound 0.03 µM
  viability, T/C: 43.4%
Second compound 0.316 µM, first compound 0.0949 µM
  viability, T/C: 39.4%
Second compound 0.316 µM, first compound 0.3 µM
  viability, T/C: 24.1%
Second compound 1 µM, first compound 0.000949 µM
  viability, T/C: 37.4%
Second compound 1 µM, first compound 0.003 µM
  viability, T/C: 36.5%
Second compound 1 µM, first compound 0.00949 µM
  viability, T/C: 32.7%
Second compound 1 µM, first compound 0.03 µM
  viability, T/C: 30.3%
Second compound 1 µM, first compound 0.0949 µM
  viability, T/C: 27%
Second compound 1 µM, first compound 0.3 µM
  viability, T/C: 18.1%
Second compound 3.16 µM, first compound 0.000949 µM
  viability, T/C: 36.3%
Second compound 3.16 µM, first compound 0.003 µM
  viability, T/C: 33.5%
Second compound 3.16 µM, first compound 0.00949 µM
  viability, T/C: 32.3%
Second compound 3.16 µM, first compound 0.03 µM
  viability, T/C: 28.6%
Second compound 3.16 µM, first compound 0.0949 µM
  viability, T/C: 24.8%
Second compound 3.16 µM, first compound 0.3 µM
  viability, T/C: 17.4%
Second compound 10 µM, first compound 0.000949 µM
  viability, T/C: 37.2%
Second compound 10 µM, first compound 0.003 µM
  viability, T/C: 35.6%
Second compound 10 µM, first compound 0.00949 µM
  viability, T/C: 33%
Second compound 10 µM, first compound 0.03 µM
  viability, T/C: 32.4%
Second compound 10 µM, first compound 0.0949 µM
  viability, T/C: 29.3%
Second compound 10 µM, first compound 0.3 µM
  viability, T/C: 21.1%

## CC1(C)CCC(CN2CCN(c3ccc(C(=O)NS(=O)(=O)c4ccc(NCC5CCOCC5)c([N+](=O)[O-])c4)c(Oc4cnc5[nH]ccc5c4)c3)CC2)=C(c2ccc(Cl)cc2)C1 + CNC(=O)c1ccc(Nc2nc(OC3CCCC3)c3c(-c4ccc5nc(C)oc5c4)c[nH]c3n2)c(OC)c1
Second compound 0.0316 µM
  IC50: 6100 nM
Second compound 0.1 µM
  IC50: 4370 nM
Second compound 0.316 µM
  IC50: 1740 nM
Second compound 1 µM
  IC50: < 31.6 nM
Second compound 3.16 µM
  IC50: < 31.6 nM
Second compound 10 µM
  IC50: < 31.6 nM
Second compound 0.0316 µM, first compound 0.0316 µM
  viability, T/C: 110%
Second compound 0.0316 µM, first compound 0.1 µM
  viability, T/C: 109%
Second compound 0.0316 µM, first compound 0.316 µM
  viability, T/C: 102%
Second compound 0.0316 µM, first compound 1 µM
  viability, T/C: 102%
Second compound 0.0316 µM, first compound 3.16 µM
  viability, T/C: 119%
Second compound 0.0316 µM, first compound 10 µM
  viability, T/C: 6.08%
Second compound 0.1 µM, first compound 0.0316 µM
  viability, T/C: 81.6%
Second compound 0.1 µM, first compound 0.1 µM
  viability, T/C: 82%
Second compound 0.1 µM, first compound 0.316 µM
  viability, T/C: 85.8%
Second compound 0.1 µM, first compound 1 µM
  viability, T/C: 80%
Second compound 0.1 µM, first compound 3.16 µM
  viability, T/C: 67.9%
Second compound 0.1 µM, first compound 10 µM
  viability, T/C: 4.37%
Second compound 0.316 µM, first compound 0.0316 µM
  viability, T/C: 53.1%
Second compound 0.316 µM, first compound 0.1 µM
  viability, T/C: 57.5%
Second compound 0.316 µM, first compound 0.316 µM
  viability, T/C: 58.4%
Second compound 0.316 µM, first compound 1 µM
  viability, T/C: 56.8%
Second compound 0.316 µM, first compound 3.16 µM
  viability, T/C: 43.2%
Second compound 0.316 µM, first compound 10 µM
  viability, T/C: 6.45%
Second compound 1 µM, first compound 0.0316 µM
  viability, T/C: 36.1%
Second compound 1 µM, first compound 0.1 µM
  viability, T/C: 35.2%
Second compound 1 µM, first compound 0.316 µM
  viability, T/C: 37.5%
Second compound 1 µM, first compound 1 µM
  viability, T/C: 39.9%
Second compound 1 µM, first compound 3.16 µM
  viability, T/C: 33.1%
Second compound 1 µM, first compound 10 µM
  viability, T/C: 4.39%
Second compound 3.16 µM, first compound 0.0316 µM
  viability, T/C: 35.9%
Second compound 3.16 µM, first compound 0.1 µM
  viability, T/C: 34.6%
Second compound 3.16 µM, first compound 0.316 µM
  viability, T/C: 35.1%
Second compound 3.16 µM, first compound 1 µM
  viability, T/C: 37.6%
Second compound 3.16 µM, first compound 3.16 µM
  viability, T/C: 32.1%
Second compound 3.16 µM, first compound 10 µM
  viability, T/C: 3.97%
Second compound 10 µM, first compound 0.0316 µM
  viability, T/C: 34.7%
Second compound 10 µM, first compound 0.1 µM
  viability, T/C: 30.6%
Second compound 10 µM, first compound 0.316 µM
  viability, T/C: 40.3%
Second compound 10 µM, first compound 1 µM
  viability, T/C: 36%
Second compound 10 µM, first compound 3.16 µM
  viability, T/C: 35.9%
Second compound 10 µM, first compound 10 µM
  viability, T/C: 6.13%
